Measured values from patent publication US9149038B2, “4-amino-6-(heterocyclic)picolinates and 6-amino-2-(heterocyclic)pyrimidine-4-carboxylates and their use as herbicides” (Dow AgroSciences LLC, priority 2013, dated 2015).
Where two headings read alike, the source gives them in different places.

System: Direct Seeded Rice and weed species
Assay: Postemergence herbicidal activity in direct seeded rice, visual rating after 20-22 days and probit GR20/GR50/GR80/GR90 (Table 14)
Type: in vivo
Settings: for pest or weed control at 17.5 g/ha / pest or weed control at 35 g/ha / pest or weed control at 70 g/ha: post-emergence, 504 h, postemergence; for pest or weed control at 17.5 g/ha: 17.5 g ai/ha; for pest or weed control at 35 g/ha: 35 g ai/ha; for pest or weed control at 70 g/ha: 70 g ai/ha
How it was run: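 Rice and weeds grown in loam–sand soil (pH about 8.1) in greenhouse to 2nd–3rd true leaf, then sprayed postemergence at 187 L/ha in acetone/DMSO with 1.25% (v/v) Agri-dex crop oil. Injury rated visually 0–100 after 20-22 days versus untreated plants; GR20, GR50, GR80, GR90 obtained by probit analysis across dose rates.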

[1] = BRAPP (broadleaf signalgrass, Brachiaria platyphylla), read-out: Visual Growth Reduction (%) 21 Days After Application BRAPP
[2] = CYPDI (small-flower flatsedge, Cyperus difformis), read-out: Visual Growth Reduction (%) 21 Days After Application CYPDI
[3] = CYPES (yellow nutsedge, Cyperus esculentus), read-out: Visual Growth Reduction (%) 21 Days After Application CYPES
[4] = CYPIR (rice flatsedge, Cyperus iria), read-out: Visual Growth Reduction (%) 21 Days After Application CYPIR
[5] = DIGSA (large crabgrass, Digitaria sanguinalis), read-out: Visual Growth Reduction (%) 21 Days After Application DIGSA
[6] = ECHCG (barnyardgrass, Echinochloa crus-galli), read-out: Visual Growth Reduction (%) 21 Days After Application ECHCG
[7] = ECHCO (junglerice, Echinochloa colonum), read-out: Visual Growth Reduction (%) 21 Days After Application ECHCO
[8] = LEFCH (Chinese sprangletop, Leptochloa chinensis), read-out: Visual Growth Reduction (%) 21 Days After Application LEFCH
[9] = ORYSJ (Oryza sativa, rice crop), read-out: Visual Growth Reduction (%) 21 Days After Application ORYSJ
[10] = ORYSK (Oryza sativa, rice crop), read-out: Visual Growth Reduction (%) 21 Days After Application ORYSK
[11] = SCPJU (Japanese bulrush, Schoenoplectus juncoides Roxb.), read-out: Visual Growth Reduction (%) 21 Days After Application SCPJU
[12] = SEBEX (hemp sesbania, Sesbania exaltata), read-out: Visual Growth Reduction (%) 21 Days After Application SEBEX

`COC(=O)c1nc(-c2ccc3c(c2F)OC(F)(F)O3)cc(N)c1Cl` [Compound 37, Methyl 4-amino-3-chloro-6-(2,2,4-trifluorobenzo-[d][1,3]dioxol-5-yl)picolinate] was tested, and the “GR50 BRAPP” value (BRAPP (Brachiaria platyphylla), probit analysis, dose for 50 percent growth reduction) was 3 g ai/ha, the “GR80 BRAPP” value (BRAPP (Brachiaria platyphylla), probit analysis, dose for 80 percent growth reduction) was 15 g ai/ha and the “GR90 BRAPP” value (BRAPP (Brachiaria platyphylla), probit analysis, dose for 90 percent growth reduction) was 39 g ai/ha. For the same compound, the “GR50 CYPDI” value (CYPDI (Cyperus difformis), probit analysis, dose for 50 percent growth reduction) was 0.04 g ai/ha, the “GR80 CYPDI” value (CYPDI (Cyperus difformis), probit analysis, dose for 80 percent growth reduction) was 1 g ai/ha and the “GR90 CYPDI” value (CYPDI (Cyperus difformis), probit analysis, dose for 90 percent growth reduction) was 2 g ai/ha. For the same compound, the “GR50 CYPES” value (CYPES (Cyperus esculentus), probit analysis, dose for 50 percent growth reduction) was under 18 g ai/ha, the “GR80 CYPES” value (CYPES (Cyperus esculentus), probit analysis, dose for 80 percent growth reduction) was under 18 g ai/ha and the “GR90 CYPES” value (CYPES (Cyperus esculentus), probit analysis, dose for 90 percent growth reduction) was under 18 g ai/ha. The “GR50 CYPIR” value (CYPIR (Cyperus iria), probit analysis, dose for 50 percent growth reduction) was 6 g ai/ha, the “GR80 CYPIR” value (CYPIR (Cyperus iria), probit analysis, dose for 80 percent growth reduction) was 23 g ai/ha and the “GR90 CYPIR” value (CYPIR (Cyperus iria), probit analysis, dose for 90 percent growth reduction) was 46 g ai/ha. The “GR50 DIGSA” value (DIGSA (Digitaria sanguinalis), probit analysis, dose for 50 percent growth reduction) was 0.07 g ai/ha, the “GR80 DIGSA” value (DIGSA (Digitaria sanguinalis), probit analysis, dose for 80 percent growth reduction) was 2 g ai/ha and the “GR90 DIGSA” value (DIGSA (Digitaria sanguinalis), probit analysis, dose for 90 percent growth reduction) was 8 g ai/ha. The “GR50 ECHCG” value (ECHCG (Echinochloa crus-galli), probit analysis, dose for 50 percent growth reduction) was 0.33 g ai/ha, the “GR80 ECHCG” value (ECHCG (Echinochloa crus-galli), probit analysis, dose for 80 percent growth reduction) was 4 g ai/ha and the “GR90 ECHCG” value (ECHCG (Echinochloa crus-galli), probit analysis, dose for 90 percent growth reduction) was 17 g ai/ha. For the same compound, the “GR50 ECHCO” value (ECHCO (Echinochloa colonum), probit analysis, dose for 50 percent growth reduction) was 0.001 g ai/ha, the “GR80 ECHCO” value (ECHCO (Echinochloa colonum), probit analysis, dose for 80 percent growth reduction) was 0.2 g ai/ha and the “GR90 ECHCO” value (ECHCO (Echinochloa colonum), probit analysis, dose for 90 percent growth reduction) was 3 g ai/ha. The “GR50 LEFCH” value (LEFCH (Leptochloa chinensis), probit analysis, dose for 50 percent growth reduction) was 116 g ai/ha, the “GR80 LEFCH” value (LEFCH (Leptochloa chinensis), probit analysis, dose for 80 percent growth reduction) was 288 g ai/ha and the “GR90 LEFCH” value (LEFCH (Leptochloa chinensis), probit analysis, dose for 90 percent growth reduction) was 464 g ai/ha. The “GR20 ORYSJ” value (ORYSJ (Oryza sativa, rice crop), probit analysis, dose for 20 percent growth reduction) was 56 g ai/ha, the “GR20 ORYSK” value (ORYSK (Oryza sativa, rice crop), probit analysis, dose for 20 percent growth reduction) was 70 g ai/ha and the “GR50 SCPJU” value (SCPJU (Schoenoplectus juncoides Roxb.), probit analysis, dose for 50 percent growth reduction) was 0.0001 g ai/ha. The “GR80 SCPJU” value (SCPJU (Schoenoplectus juncoides Roxb.), probit analysis, dose for 80 percent growth reduction) was 0.0001 g ai/ha, the “GR90 SCPJU” value (SCPJU (Schoenoplectus juncoides Roxb.), probit analysis, dose for 90 percent growth reduction) was 0.0001 g ai/ha and the “GR50 SEBEX” value (SEBEX (Sesbania exaltata), probit analysis, dose for 50 percent growth reduction) was 2 g ai/ha. The “GR80 SEBEX” value (SEBEX (Sesbania exaltata), probit analysis, dose for 80 percent growth reduction) was 15 g ai/ha, the “GR90 SEBEX” value (SEBEX (Sesbania exaltata), probit analysis, dose for 90 percent growth reduction) was 47 g ai/ha and the pest or weed control at 17.5 g/ha [1] was 60 to 74%. The pest or weed control at 35 g/ha [1] was 85 to 94%, the pest or weed control at 70 g/ha [1] was 95 to 100% and the pest or weed control at 17.5 g/ha [2] was 95 to 100%. It also gave a pest or weed control at 35 g/ha [2] of 95 to 100%, a pest or weed control at 70 g/ha [2] of 95 to 100% and a pest or weed control at 17.5 g/ha [3] of 75 to 84%. For the same compound, the pest or weed control at 35 g/ha [3] was 85 to 94%, the pest or weed control at 70 g/ha [3] was 95 to 100% and the pest or weed control at 17.5 g/ha [4] was 85 to 94%. The pest or weed control at 35 g/ha [4] was 45 to 59%, the pest or weed control at 70 g/ha [4] was 95 to 100% and the pest or weed control at 17.5 g/ha [5] was 85 to 94%. For the same compound, the pest or weed control at 35 g/ha [5] was 95 to 100%, the pest or weed control at 70 g/ha [5] was 95 to 100% and the pest or weed control at 17.5 g/ha [6] was 85 to 94%. For the same compound, the pest or weed control at 35 g/ha [6] was 85 to 94%, the pest or weed control at 70 g/ha [6] was 95 to 100% and the pest or weed control at 17.5 g/ha [7] was 85 to 94%. The pest or weed control at 35 g/ha [7] was 95 to 100%, the pest or weed control at 70 g/ha [7] was 95 to 100% and the pest or weed control at 17.5 g/ha [8] was 0 to 29%. The pest or weed control at 35 g/ha [8] was 0 to 29%, the pest or weed control at 70 g/ha [8] was 45 to 59% and the pest or weed control at 17.5 g/ha [9] was 0 to 29%. For the same compound, the pest or weed control at 35 g/ha [9] was 0 to 29%, the pest or weed control at 70 g/ha [9] was 30 to 44% and the pest or weed control at 17.5 g/ha [10] was 0 to 29%. The pest or weed control at 35 g/ha [10] was 0 to 29%, the pest or weed control at 70 g/ha [10] was 0 to 29% and the pest or weed control at 17.5 g/ha [11] was 95 to 100%. For the same compound, the pest or weed control at 35 g/ha [11] was 95 to 100%, the pest or weed control at 70 g/ha [11] was 95 to 100% and the pest or weed control at 17.5 g/ha [12] was 75 to 84%. For the same compound, the pest or weed control at 35 g/ha [12] was 85 to 94% and the pest or weed control at 70 g/ha [12] was 95 to 100%.
